Assay results: article PMC7345095, “New Synthetic Nitro-Pyrrolomycins as Promising Antibacterial and Anticancer Agents” (Antibiotics, 2020)
Values after ≈ are worked out from the molar mass of the structure shown. Read-outs that look alike come from different tables or passages of the source.

Experiments:
Escherichia coli = system: Escherichia coli; design: method as in PMID 31405863, PMID 15730262; conditions: natural PMs; cited from earlier work
[1] = system: Pseudomonas aeruginosa ATCC 10145; assay: Kill curve assay (MBC), planktonic cells; assay type: cell-based; conditions: for MBC: Pseudomonas aeruginosa, ATCC10145, minimal bactericidal concentration, planktonic cells, 24 h challenge, LB medium, read-out: MBC P. aeruginosa; for B-SI (Bacterial Selectivity Index), P. aeruginosa: ratio of IC50 of normal hTERT-RPE-1 to MBC of P. aeruginosa, first value of the cell; for log reduction in the number of viable CFUs, P. aeruginosa: highest concentration tested 100 μM, 24 h
Experimental: (§1) Kill curve assays were performed to test the antimicrobial efficacy of pyrrolomycins (i.e., 1, 2, 5a, 5b, 5c, 5d), as well as that of the natural PM-C against the indicator pathogen Staphylococcus aureus ATCC 25923 and Pseudomonas aeruginosa ATCC 10145 strains. Briefly, a single colony of either S. aureus or P. aeruginosa strains was picked up and pre-cultivated (ca. 16 h) at 37 °C with shacking (160 rpm) in Luria Bertani medium (hereinafter named as LB and composed of (g L^−1): sodium chloride, 10; yeast extract, 5; tryptone, 10). The same medium was solidified by adding 15 g L^−1 of bacteriological agar when needed. Bacterial cells were then inoculated (1% v/v) in LB medium amended with increasing concentrations—ranging from 0 to 100 μM as initial concentration—of each pyrrolomycin tested, challenging the cultures for 24 h and incubating them as reported above. The actual number of viable colony forming units per milliliter of culture (CFU mL^−1) of each bacterial strain, who survived the challenge exerted by pyrrolomycins, was evaluated through the spot plate count method and compared to unchallenged cultures, as reported elsewhere. The data are reported as average values (n = 3) of CFU mL^−1 in the logarithmic (Log10) scale with standard deviation (SD). Evaluation of the MIC of PM-5c, and -5d against S. aureus and of PM-5d against P. aeruginosa was performed by incubating 1% (v/v) of an overnight bacterial suspension in LB medium in presence of increasing concentrations of the PMs. As a control, MIC of PM-C was measured. At the time of the inoculum and after overnight challenge, the absorbance of the cultures at 600 nm, which is an indirect way to measure the bacterial cell growth, was registered using a Spark™ 10 M multimode microplate reader measuring. The experiment was carried out in triplicate, being the absorbance corrected by subtracting that of the culture medium amended with the corresponding PM tested.

[2] = system: Staphylococcus aureus ATCC 25923; assay: Kill curve assay (MBC), planktonic cells; assay type: cell-based; conditions: for MBC: minimal bactericidal concentration, planktonic cells, 24 h challenge, LB medium, read-out: MBC S. aureus; for B-SI (Bacterial Selectivity Index), S. aureus: ratio of IC50 of normal hTERT-RPE-1 to MBC of S. aureus, second value of the cell
Experimental: as §1

[3] = system: HCT116 colon cancer cell line; assay: MTT viability assay; assay type: cell-based; conditions: for IC50: MTT, 48 h of treatment; for C-SI (Cancer Selectivity Index), HCT116: ratio of IC50 of normal hTERT-RPE-1 to that of HCT116, first value of the cell
Experimental: (§2) The HCT116 colon cancer cell line (ATCC® CCL-247™), the MCF 7 breast cancer cell line (ATCC® HTB-22™) and the hTERT RPE-1 -immortalized retinal pigment epithelial cell line (ATCC® CRL-4000™) used in this study were cultured in DMEM medium (Gibco, Paisley, UK), supplemented with 1% glutamine, 10% heat-inactivated fetal bovine serum and 100U/mL penicillin and 100 μg/mL streptomycin, as already described, and maintained at 37 °C and 5% CO2.
(§3) Cells were plated at 5 × 10^3 cells/well in 96-well plates and incubated for 24 h prior to treatment for further 48 h of different concentrations of PMs. After incubation, a sample of 20 μL of Thiazolyl Blue Tetrazolium Bromide (5 mg mL^−1) in PBS was added to each well and cultured for 2h at 37 °C in CO2 incubator. After removing the medium containing MTT and three washes with PBS, 100 μL of warm DMSO was added to each well to dissolve formazan. Samples were shaken for 10 min, at room temperature in the dark, and the absorbance was recorded at 570 nm using a microplate reader (Spark® 20M Tecan Trading AG, Switzerland). Percentage of cell viability with respect to untreated control cells (vehicle control) was calculated after subtraction of the blank. The IC50 values, that is the concentration necessary to inhibit the 50% of cell growth, was calculated using a dose-response model, obtained from sigmoidal fitting of response curves of percent inhibition versus logarithmic concentration of PMs, using Graph Pad Prism software. Each result represents the mean value of three different experiments performed in triplicate.

[4] = system: MCF 7 breast cancer cell line; assay: MTT viability assay; assay type: cell-based; conditions: for IC50: MTT, 48 h of treatment; for C-SI (Cancer Selectivity Index), MCF 7: ratio of IC50 of normal hTERT-RPE-1 to that of MCF 7, second value of the cell
Experimental: as §2, §3

[5] = system: hTERT RPE-1 immortalized retinal pigment epithelial cell line; assay: MTT viability assay (cytotoxicity on normal cells); assay type: cell-based; conditions: hTERT-RPE1; MTT, 48 h of treatment, normal epithelial cells; read-out: IC50 hTERT-RPE-1
Experimental: as §2, §3

[6] = system: HCT116 and MCF 7 cancer cell lines; assay: MTT viability assay, statements over both cancer cell lines; assay type: cell-based; conditions: for IC50: MTT, 48 h challenge, group statement, read-out: IC50, regardless of the cancer cell line (HCT116, MCF 7); for C-SI, mean value among the two cancer cell lines: mean of HCT116 and MCF 7 C-SI
Experimental: as §2, §3

HCT116 cells [7] = assay: Morphological assessment, phase contrast inverted microscope; assay type: cell-based; conditions: 0.1 µM (sub-inhibitory), 24 h
Experimental: HCT116 cells were seeded in 24 well culture plates with a cell density of 1 × 10^5 cells/well. After 24 h cells were incubated for 24 h with different concentration of the selected PMs, and observed under a phase contrast inverted microscope (Carl Zeiss) at 200× magnification, for morphological changes assessment.

HCT116 cells [8] = assay: Acridine orange/ethidium bromide (AO/EB) staining; assay type: cell-based; conditions: for AO/EB fluorescence of treated HCT116 cells (type of cell death): treated at IC50 for 24 and 48 h
Text: Cells were immediately observed under a fluorescent microscopy (Carl Zeiss) at 630 × magnification.

S. aureus = assay: MIC by absorbance at 600 nm after overnight challenge; assay type: cell-based; conditions: Staphylococcus aureus, LB medium, absorbance 600 nm
Experimental: as §1

P. aeruginosa = assay: MIC by absorbance at 600 nm after overnight challenge; assay type: cell-based; conditions: Pseudomonas aeruginosa, LB medium, absorbance 600 nm
Experimental: as §1

P. aeruginosa cells = assay: AO/EB double staining of bacterial cells; assay type: cell-based, Pseudomonas aeruginosa; conditions: 10 μM (sub-inhibitory), 24 h
Experimental: It is noteworthy to highlight that the main difference between PM-C and 5d relies only on the presence of the nitro group in the position R3 of the latter, which is likely responsible for its enhanced electronegativity and, therefore, better biological reactivity over PM-C.
Figure 3 Fluorescence micrographs of P. aeruginosa cells treated for 24 h with 100 μM of PM-C or 10 μM of PM 5d after AO/EB double staining. Control represents untreated cells. Green (AO) are viable cells, red (EB) dead cells, and orange vital cells with damaged membranes.

[9] = Staphylococcus aureus, ATCC25923

Row | Structure (SMILES) | MIC against Escherichia coli (Escherichia coli) | MBC [1] | B-SI (Bacterial Selectivity Index), P. aeruginosa [1] | MBC [2, 9] | MBC [2] | B-SI (Bacterial Selectivity Index), S. aureus [2] | IC50 ([3]; Homo sapiens, HCT-116, 48 h) | C-SI (Cancer Selectivity Index), HCT116 [3] | IC50 ([4]; Homo sapiens, MCF7, 48 h) | IC50 [4] | C-SI (Cancer Selectivity Index), MCF 7 [4] | IC50 [5] | IC50 [6] | C-SI, mean value among the two cancer cell lines [6] | morphology of treated HCT116 cells (HCT116 cells [7]) | AO/EB fluorescence of treated HCT116 cells (type of cell death) (HCT116 cells [8]) | log reduction in the number of viable CFUs, P. aeruginosa [1] | IC50 [3] | melting point | other results
1 | COc1c(Cl)cc(Cl)cc1C(=O)c1cc(Cl)c(Cl)[nH]1 [PM-I] | more than 300 μM |  |  |  |  |  |  |  |  |  |  |  |  |  |  |  |  |  |  | 
2 | O=C(c1cc([N+](=O)[O-])c[nH]1)c1cc(Cl)cc(Cl)c1O [PM 5a, (3,5-Dichloro-2-hydroxyphenyl)(4-nitro-1H-pyrrol-2-yl)methanone] |  | > 100 µM | > 0.7 | 60 µM (≈ 18.1 µg/mL) | 60 µM (≈ 18.1 µg/mL) | 1.1 | 1.9 ± 0.42 µM | 34.6 | 2.25 ± 0.35 µM | 2.2 ± 0.3 µM | 29.2 | 65.8 ± 10.5 µM | 0.8 to 2.25 µM | 32 | more fibroblastic and less clumped morphology | orange fluorescence |  |  |  | 
3 | O=C(c1cc(Br)cc(Br)c1O)c1[nH]c(Br)c(Br)c1Br [PM 1, 3,4,5,3′,5′-Pentabromo-2-(2′-hydroxybenzoyl)pyrrole, reference compound] |  | > 100 µM | > 0.6 | 5 µM (≈ 2.91 µg/mL) |  | 11.5 | 1.3 ± 0.3 µM | 44.2 | 1.22 ± 0.69 µM | 1.2 ± 0.7 µM | 47.3 | 57.7 ± 11.2 µM | 0.8 to 2.25 µM | 46 | more fibroblastic and less clumped morphology | red fluorescence | 2.2 log |  |  | 
4 | O=C(c1cc(Br)c([N+](=O)[O-])[nH]1)c1cc(Cl)cc(Cl)c1O [PM 5c, (4-Bromo-5-nitro-1H-pyrrol-2-yl)(3,5-dichloro-2-hydroxyphenyl)methanone] |  | > 100 µM | > 0.3 | 1 µM (≈ 0.38 µg/mL) | 1 µM (≈ 0.38 µg/mL) | 29.7 | 7.64 ± 1.88 µM |  | 12 ± 2.85 µM | 12 ± 2.8 µM |  | 29.7 ± 5.7 µM | > 7 µM | 8 |  |  | 2.2 log | 7.6 ± 1.9 µM | 175 to 177 °C | fold more active than the synthetic PM-1 (S. aureus) ([2]; fold versus PM-1): 5; times more active than PM-C (S. aureus MBC) ([2]; fold versus PM-C): 90; times less toxic than PM-C (bacterial SI) ([2]; from bacterial selectivity index, S. aureus): 30; MIC (S. aureus): 0.5 µM (≈ 0.19 µg/mL)
5 | COc1c(Cl)cc(Cl)cc1[C@H](O)c1[nH]c(Cl)c(Cl)c1[N+](=O)[O-] [PM-H] | more than 300 μM |  |  |  |  |  |  |  |  |  |  |  |  |  |  |  |  |  |  | 
6 | O=C(c1cc(Cl)cc(Cl)c1O)c1[nH]c(Cl)c(Cl)c1[N+](=O)[O-] [PM 5d, (3,5-Dichloro-2-hydroxyphenyl)(4,5-dichloro-3-nitro-1H-pyrrol-2-yl)methanone] |  | 30 µM (≈ 11.1 µg/mL) | 7.5 | 7.5 µM (≈ 2.77 µg/mL) |  | 30 | 1.56 µM | 143.3 | 1.57 ± 0.39 µM | 1.6 ± 0.4 µM | 143.4 | 225 ± 22.7 µM | 0.8 to 2.25 µM | 143 | more fibroblastic and less clumped morphology | orange fluorescence |  | 1.6 ± 0.2 µM |  | MIC (P. aeruginosa): > 20 µM; MIC (S. aureus): 2 µM (≈ 0.74 µg/mL); AO/EB staining colour of P. aeruginosa cells (P. aeruginosa cells): either orange (indicating that cell membranes were damaged due to the entrance of EB) or red (indicating not viable cells); late apoptosis by AO/EB staining, HCT116 (HCT116 cells [8]; treated at IC50, after 48 h): reddish orange cells
7 | O=[N+]([O-])c1c([C@@H](O)c2cc(Cl)cc(Cl)c2O)[nH]c(Cl)c1Cl [PM-G] | more than 300 μM |  |  |  |  |  |  |  |  |  |  |  |  |  |  |  |  |  |  | 
8 | COc1c(Cl)cc(Cl)cc1C(=O)c1[nH]c(Cl)c(Cl)c1Cl [PM-J] | more than 300 μM |  |  |  |  |  |  |  |  |  |  |  |  |  |  |  |  |  |  | 
9 | O=C(c1cc(Cl)c([N+](=O)[O-])[nH]1)c1cc(Cl)cc(Cl)c1O [PM 5b, (4-Chloro-5-nitro-1H-pyrrol-2-yl)(3,5-dichloro-2-hydroxyphenyl)methanone] |  | > 100 µM | > 0.6 | 20 µM (≈ 6.71 µg/mL) | 20 µM (≈ 6.71 µg/mL) | 2.8 | 18.7 ± 3.81 µM | 3 | 28.8 ± 4.21 µM | 28.8 ± 4.2 µM | 1.9 | 55.4 ± 13.2 µM | > 7 µM | 2.5 |  |  | 2.7 log | 18.7 ± 3.8 µM | 180 to 182 °C | 
10 | COc1c(Br)cc(Br)cc1C(=O)c1c(Br)c(Br)c(Br)n1C [PM 2, (3,5-Dibromo-2-methoxyphenyl)(3,4,5-tribromo-1-methyl-1H-pyrrol-2-yl)methanone] |  | > 100 µM | > 1.5 | 70 µM (≈ 42.7 µg/mL) |  | 2.1 | 11.1 ± 3.26 µM | 13.4 | 17.2 ± 3.2 µM | 17.2 ± 3.2 µM | 8.6 | 149 ± 41 µM | > 7 µM | 11 |  |  |  | 11.1 ± 3.3 µM | 179 to 180 °C | 
